Among the data in patent publication US20250163104A1, “MACROCYCLIC IMMUNOMODULATORS” (priority 2021, published 2025) are IC50 values, retold here.

This assay addresses T1, human PD-1 / PD-L1-Ig binding on Jurkat cell line over-expressing human PD-1 (Jurkat-PD-1) (Homo sapiens, UniProt Q15116).
T1 construct: expressed in transfected cells; host or cells: Jurkat
Kind of assay: Jurkat-PD-1 Cell Binding High-Content Screening Assay (CBA). It is filed as cell-based. As to conditions: Jurkat-PD-1 cells, PE-labeled PD-L1-Ig 20 nM final; read-out: Jurkat HPD1_PDL1 IC50. Put shortly: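 Binding of fluorescent PD-L1-Ig (phycoerythrin linked via the Ig tag, 20 nM final) to PD-1-overexpressing Jurkat cells was imaged after a 2 h, 37° C compound pretreatment and 1 hour ligand incubation.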

Where a SMILES comes first, the peptide text is derived from it. Bridges are numbered along the chain shown (N, C = ends). [ ]: non-standard residue; d: D form. The star is where a group is joined. ξ: configuration not given here. Ala(morpholin-4-yl) = N[C@@H](CN1CCOCC1)C(=O)O; Phe(4-COOH) = N[C@@H](Cc1ccc(C(=O)O)cc1)C(=O)O; Bip = N[C@@H](Cc1ccc(-c2ccccc2)cc1)C(=O)O; Phe(3-Me) = Cc1cccc(C[C@H](N)C(=O)O)c1; Cha = N[C@@H](CC1CCCCC1)C(=O)O; ξCit = NC(=O)NCCCC(N)C(=O)O; Carboxymethyl = O=C(O)C*; Orn = NCCC[C@H](N)C(=O)O; Pra = C#CC[C@H](N)C(=O)O; Dab = NCC[C@H](N)C(=O)O; Dap = NC[C@H](N)C(=O)O

T1 sequence (Q15116 25-288): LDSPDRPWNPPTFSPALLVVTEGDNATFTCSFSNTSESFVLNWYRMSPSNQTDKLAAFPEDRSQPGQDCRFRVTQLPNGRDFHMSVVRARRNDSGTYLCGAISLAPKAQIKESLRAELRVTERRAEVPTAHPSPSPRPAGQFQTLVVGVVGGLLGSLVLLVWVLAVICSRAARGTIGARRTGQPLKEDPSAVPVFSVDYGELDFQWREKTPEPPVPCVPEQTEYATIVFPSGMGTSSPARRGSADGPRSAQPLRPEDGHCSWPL

As to `CC(C)C[C@H]1NC(=O)[C@H](CCCN)NC(=O)[C@H](CCCNC(N)=O)NC(=O)[C@H](Cc2ccc(-c3ccccc3)cc2)NC(=O)[C@H](C(C)C)NC(=O)[C@H](Cc2c[nH]c3ccccc23)NC(=O)[C@H](CC(=O)O)NC(=O)[C@H](Cc2ccc(OCC(=O)O)cc2)NC(=O)[C@H](CN)NC(=O)CSC[C@@H](C(=O)N[C@@H](C)C(N)=O)NC(=O)[C@H]([C@@H](C)O)NC(=O)[C@H](C(C)C)NC(=O)[C@H](Cc2cccnc2)NC(=O)[C@H](CCN)NC1=O` [Compound 1350], the IC50 (in general, the point on the concentration scale where inhibition reaches its midpoint) was determined as 162 nM.
Then `CC(C)C[C@H]1NC(=O)[C@H](CCCN)NC(=O)[C@H](CCC(=O)O)NC(=O)[C@H](Cc2ccc(-c3ccccc3)cc2)NC(=O)[C@H](C(C)C)NC(=O)[C@H](Cc2ccccc2F)NC(=O)[C@H](CC(=O)O)NC(=O)[C@H](Cc2ccc(C#N)cc2)NC(=O)[C@H](Cc2ccc(OCC(=O)O)cc2)NC(=O)CSC[C@@H](C(=O)N[C@@H](C)C(N)=O)NC(=O)[C@H]([C@@H](C)O)NC(=O)[C@H](C(C)C)NC(=O)[C@H](CC2CCCCC2)NC(=O)[C@H](CCN)NC1=O` [Compound 2215], with 30.4 nM; and `C#CC[C@H](NC(=O)[C@H](CCN)NC(=O)[C@@H]1CSCC(=O)N[C@@H](CN)C(=O)N[C@@H](Cc2ccc(OCC(=O)O)cc2)C(=O)N[C@@H](CC(=O)O)C(=O)N[C@@H](Cc2cccc(C)c2)C(=O)N[C@@H](C(C)C)C(=O)N[C@@H](Cc2ccc(-c3ccccc3)cc2)C(=O)NC(CCCNC(N)=O)C(=O)N[C@@H](CCCN)C(=O)N[C@H](CC(C)C)C(=O)N[C@@H](CCN)C(=O)N[C@@H](CC2CCCCC2)C(=O)N[C@@H](C(C)C)C(=O)N[C@@H]([C@@H](C)O)C(=O)N1)C(=O)O` (stereo partly drawn) [Compound 2258] ({CH2CO}-[Dap]Y(Carboxymethyl)D[Phe(3-Me)]V[Bip][ξCit][Orn][dL][Dab][Cha]VTC[Dab][Pra]-OH; thioether N-14), with 14.9 nM.
Then `Cc1cccc(C[C@@H]2NC(=O)[C@H](CC(N)=O)NC(=O)[C@H](Cc3ccc(C(=O)O)cc3)NC(=O)[C@H](CN3CCOCC3)NC(=O)CSC[C@@H](C(=O)N[C@@H](CCN)C(N)=O)NC(=O)[C@H](CCCN)NC(=O)[C@H](C(C)C)NC(=O)[C@H](CC3CCCCC3)NC(=O)[C@H](CCN)NC(=O)[C@@H](CC(C)C)NC(=O)[C@H](CCCN)NC(=O)[C@H](CCCN)NC(=O)[C@H](Cc3ccc(-c4ccccc4)cc3)NC(=O)[C@H](Cc3ccc(C(=O)O)cc3)NC2=O)c1` [Example 2727] ({CH2CO}-[Ala(morpholin-4-yl)][Phe(4-COOH)]N[Phe(3-Me)][Phe(4-COOH)][Bip][Orn][Orn][dL][Dab][Cha]V[Orn]C[Dab]-NH2; thioether N-14), with 348 nM; and `CC(C)C[C@H]1NC(=O)[C@H](CCCN)NC(=O)[C@H](CCC(=O)O)NC(=O)[C@H](Cc2ccc(-c3ccccc3)cc2)NC(=O)[C@H](C(C)C)NC(=O)[C@H](Cc2c[nH]c3ccccc23)NC(=O)[C@H](CC(=O)O)NC(=O)[C@H](Cc2ccncc2)NC(=O)[C@H](Cc2ccc(OCC(=O)O)cc2)NC(=O)CSC[C@@H](C(=O)N[C@@H](C)C(N)=O)NC(=O)[C@H]([C@@H](C)O)NC(=O)[C@H](C(C)C)NC(=O)[C@H](CC2CCCCC2)NC(=O)[C@H](CCN)NC1=O` [Compound 1423], with 9.9 nM; and `CC(C)C[C@H]1NC(=O)[C@H](CCCN)NC(=O)[C@H](CCC(=O)O)NC(=O)[C@H](Cc2ccc(-c3ccccc3)cc2)NC(=O)[C@H](C(C)C)NC(=O)[C@H](Cc2c[nH]c3ccccc23)NC(=O)[C@H](CO)NC(=O)[C@H](Cc2ccc(OCC(=O)O)cc2)NC(=O)[C@H](CN)NC(=O)CSC[C@@H](C(=O)N[C@@H](C)C(N)=O)NC(=O)[C@H]([C@@H](C)O)NC(=O)[C@H](C(C)C)NC(=O)[C@H](CC2CCCCC2)NC(=O)[C@H](CCN)NC1=O` [Compound 1498] ({CH2CO}-[Dap]Y(Carboxymethyl)SWV[Bip]E[Orn][dL][Dab][Cha]VTCA-NH2; thioether N-14), with 366 nM.
